# Measurements: US20250223552A1, “METHOD FOR PREPARING T CELLS FOR ADOPTIVE T CELL THERAPY” (ST. JUDE CHILDREN'S RESEARCH HOSPITAL, INC., priority 2022, published 2025)
# What was measured:
# [1] = test system: B7-H3-expressing F420 tumor cells; test: Repeat stimulation assay of B7-H3 CAR-T cells with F420 tumor cells; assay type: cell-based, murine; settings: CAR-T:tumor 3:1, counted every 3 days, FIG. 5
# Method: (§1) T cells were transduced with B7-H3 CAR or a control CAR containing only the scFv and transmembrane domain (B7-H3 STOP CAR) and co-cultured with F420 tumor cells at the ratio of 3:1. Cells numbers were assessed every 3 days. Data are compiled from at least two independent experiments. Data are shown as mean±s.e.m. *p<0.05; two-way ANOVA.
# (§2) Repeat Stimulation Assay. For repeat stimulation assays, 3×10^5 tumor cells (GL261, F420) were plated in a 24-well plate and allowed to adhere for 4-6 hours at 37° C., CAR-T cells (1×10^6) were then added to the wells containing tumor cells without any exogenous cytokines (tumor: CAR-T cell ratio=1:3). After 3 days of co-culture, CAR-T cells were lifted by gentle pipetting to avoid disrupting adherent tumor cells, and the number of T cells was determined using a hemocytometer. Stimulations and cell counts were repeated every 3 days with the same tumor cells.
# (§3) Currently the most widely used adoptive T cell therapy employs the use of CARs. However, the use of CAR-T cells for the treatment of solid tumors remains challenging (Lim & June whether CAR-T cell (2017) Cell 168:724-740). […] The ability of B7-H3 CAR-T cells to control the growth of F420 cells was then assessed in vivo.
# [2] = test system: B7-H3-expressing GL261 tumor cells; test: Repeat stimulation assay of B7-H3 CAR-T cells with GL261 tumor cells; assay type: cell-based, murine; settings: CAR-T:tumor 3:1, counted every 3 days, FIG. 4
# Method: as §1, with “single-chain variable fragment (scFv)” for “scFv”, “GL261” for “F420”, “***p<0.001;” for “*p<0.05;”
# as §2, §3
# [3] = test system: OT-I CD8^+ T cells; test: OT-I CD8+ T cells activated with anti-CD3/CD28 in presence of Arid1a inhibitor, CD62L by flow cytometry; assay type: cell-based, mouse; settings: inhibitor 1 μM during 48 hours activation, drug removed, additional 2 days culture with IL-2; FIG. 1
# Excerpt: Data are compiled from at least two independent experiments. Data are shown as mean±s.e.m. *p<0.05; two-tailed unpaired Student's t-test.
# Flow Cytometry. Antibodies from Biolegend included APC/Cy7 anti-human CD8α, BV785 anti-human CD45RA, PE anti-human CD62L, APC anti-human CD27, PE/Cy7 anti-human CCR7, BV421 anti-human CD95, BV785 anti-mouse/human CD44, BV510 anti-mouse KLRG1, KIRAVIA Blue 520 anti-mouse CD62L, BV605 anti-mouse CD127, BV650 anti-mouse CX3CR1, APC anti-mouse CD8α, ALEXA FLUOR® 700 fluorescent dye anti-mouse CD45.2, APC anti-mouse CD98; PE anti-mouse CXCR3 (eBioscience); and BUV395 anti-human CD3, BUV805 anti-human CD45RO; BUV496 anti-mouse CD45.1, BUV805 anti-mouse CD8α were acquired from BD Biosciences. For surface markers, cells were stained for 30 minutes at 4° C. in PBS+2% (w/v) bovine serum albumin (BSA). […] Samples were acquired on CYTEK® Aurora or BD LSRII flow cytometer and analyzed with FlowJo software.
# Effective adoptive T cell therapy for cancer is critically dependent upon the use of T cells with long-term memory potential (Lugli et al. (2020) Trends Immunol. 41:17-28; Gattinoni et al. (2012) Nat. Rev. Cancer 12:671-684; Klebanoff et al. (2005) Proc. Natl. Acad. Sci. USA 102:9571-9576; Hurton et al. (2016) Proc. Natl. Acad. Sci. USA 113: E7788-E7797). Therefore, it was determined whether manipulation of CBAF can improve anti-tumor therapy. […]
# [4] = test system: MC38-Ova tumors; test: MC38-Ova tumor growth after adoptive transfer of inhibitor-pretreated OT-I cells; assay type: in vivo; settings: OT-I cells transiently treated with inhibitor during activation, transferred into tumor-bearing mice; FIG. 3
# Method: Naïve OT-I CD8^+ T cells were activated with anti-CD3/CD28 in the presence or absence of Arid1a inhibitor for 48 hours followed by expansion for another 4 days. Data are representative of two independent experiments. Data are shown as mean±s.e.m. **p<0.01; two-way ANOVA.
# (§4) In Vivo Tumor Transplant Experiment. For B16-Ova and MC38-Ova tumors, 0.5×10^6 tumor cells were injected subcutaneously into naïve mice (7-10 weeks of age). OT-I cells (2×10^6) were transferred i.v. 7 days after tumor injection. Tumors were measured every two days.
# (§5) Effective adoptive T cell therapy for cancer is critically dependent upon the use of T cells with long-term memory potential (Lugli et al. (2020) Trends Immunol. 41:17-28; Gattinoni et al. (2012) Nat. Rev. Cancer 12:671-684; Klebanoff et al. (2005) Proc. Natl. Acad. Sci. USA 102:9571-9576; Hurton et al. (2016) Proc. Natl. Acad. Sci. USA 113: E7788-E7797). Therefore, it was determined whether manipulation of CBAF can improve anti-tumor therapy. Accordingly, OT-I cells were transduced with sgRNA for Smarcd2 or control sgRNA, and the transduced cells were transferred into animals that were subsequently infected with Lm-Ova. Animals were then inoculated with B16F10 murine melanoma cells expressing Ova (B16-Ova) at memory phase (day >30 post-infection). Improved control of tumor growth and enhanced survival by the Smarcd2-ablated CD8^+ T cells were observed. […]
# [5] = test system: human CD8^+ T cells; test: Persistence of inhibitor-pretreated human CD8+ T cells in NSG mice at day 30 after adoptive transfer; assay type: in vivo; settings: transient treatment during activation; recovered after 30 days; FIG. 9
# Method: Naïve human CD8^+ T cells were activated with anti-CD3/CD28 in the presence or absence of Arid1a inhibitor for 48 hours followed by expansion in IL-15 containing medium for another 4 days prior to adoptive transfer. Data are representative of two independent experiments. Data are shown as mean±s.e.m. *p<0.05; two-tailed unpaired Student's t-test.
# For human CD8^+ T cell experiments, naïve CD8^+ T cells were activated by human CD3/CD28 T cell activator (StemCell) with or without an Arid1a inhibitor (BRD-K98645985; 1 μM; AOBIOUS or MedChemExpress) for two days and cultured in rhIL-15 (10 ng/ml, Peprotech) containing medium. Activated CD8^+ T cells (3×10^6) were then transferred to NOD scid gamma mice sold under the tradename NSG®. After 30 days, splenic cells were analyzed by flow cytometry.
# The effect of the Arid1a inhibitor on the differentiation of activated, human CD8^+ T cells was also analyzed. Human naïve CD8^+ T cells from healthy donors were enriched and stimulated with anti-CD3/CD28, following by culturing in IL-15 or IL-2, two cytokines that respectively promote in vitro TMEM-like and TEFF-like cell formation (Buck et al. (2016) Cell 166:63-76; Mitchell et al. (2010) J. Immunol. 184:6719-6730). Arid1a inhibitor was added during different periods of culture. […] After 30 days, T cells were recovered and analyzed.
# [6] = test system: murine B7-H3 CAR-T cells; test: Phenotype of B7-H3 CAR-T cells generated from T cells transiently treated with Arid1a inhibitor; assay type: cell-based; settings: T cells activated 2 days with inhibitor, B7-H3 CAR transduction, additional 6 days culture
# Method: Murine CAR-T cells were generated as described before (Haydar et al. (2021) Neuro-Oncol. 23:999-1011) with modification. Naïve CD8^+ T cells from 6-8 weeks old CD45.1^+ mice were activated with plate bound anti-CD3ε (1 μg/ml, Bio-X-Cell), anti-CD28 (2 μg/ml, Bio-X-Cell) and 50 U/ml rhIL-2 (Peprotech). On day 2 post-activation, CD8^+ T cells were transduced with retrovirus expressing B7-H3-CAR or control CAR on recombinant human fibronectin sold under the tradename RETRONECTIN® (Takara)-coated non-tissue culture treated plate in complete RPMI medium supplemented with 50 U/ml rhIL-2. At 48 hours after transduction, CAR-T cells were harvested and expanded in the presence of 10 ng/ml rhIL-15 (Peprotech) for another 3 days and then used d for in vivo and in vitro experiments.
# as §3
# [7] = test system: F420 tumor; test: F420 tumor-bearing mice treated with B7-H3 CAR-T cells pre-treated with Arid1a inhibitor; assay type: in vivo
# Method: Data are representative of two independent experiments. Data are shown as mean±s.e.m. *p<0.05, ***p<0.001; two-way ANOVA.
# Data are representative of two independent experiments. Log-rank (Mantel-Cox) test was performed for comparing survival curves.
# For CAR-T tumor models, the murine osteosarcoma cell line F420 was derived from singly floxed p53+/F-Col2.3 transgenic mice (Zhao et al. (2015) Oncogene 34:5069-5079); 0.5×10^6 F420 cells were injected subcutaneously into naïve mice. Seven days after tumor transplant, 5×10^6 B7-H3 CAR-T cells were transferred i.v. without lymphodepleting chemotherapy and tumor size was measured every two days.
# Currently the most widely used adoptive T cell therapy employs the use of CARs. However, the use of CAR-T cells for the treatment of solid tumors remains challenging (Lim & June whether CAR-T cell (2017) Cell 168:724-740). To examine function is enhanced by acute Arid1a inhibition, a CAR targeting murine B7-H3 (Haydar et al. (2021) Neuro-Oncol. 23:999-1011) was used in two B7-H3-positive cell lines, murine osteosarcoma F420 (Zhao et al. (2015) Oncogene 34:5069-5079; Kenneth et al. (2021) Mol. Ther. 29:326-326) and glioma GL261 (Haydar et al. (2021) Neuro-Oncol. 23:999-1011). Murine T cells were activated for 2 days in the presence or absence of the Arid1a inhibitor, followed by retroviral transduction of the B7-H3 CAR to generate CAR-T cells. […] The ability of B7-H3 CAR-T cells to control the growth of F420 cells was then assessed in vivo.
# [8] = test system: B16-Ova tumors; test: B16-Ova tumor growth after adoptive transfer of inhibitor-pretreated OT-I cells; assay type: in vivo; settings: OT-I cells transiently treated with inhibitor during activation, transferred into tumor-bearing mice; FIG. 2
# Method: Naïve OT-I CD8^+ T cells were activated with anti-CD3/CD28 in the presence or absence of Arid1a inhibitor for 48 hours followed by expansion for another 4 days. Data are representative of two independent experiments. Data are as shown mean±s.e.m. **p<0.01, ***p<0.001; two-way ANOVA.
# as §4
# as §5, with “post-infection).” for “post-infection). Improved control of tumor growth and enhanced survival by the Smarcd2-ablated CD8^+ T cells were observed.”
# [9] = test system: human CD8^+ T cells; test: Differentiation of activated human naive CD8+ T cells in vitro (TCM, TSCM, TEM markers); assay type: cell-based; settings: treatment during the first 48 hours; anti-CD3/CD28, culture in IL-15 or IL-2; FIG. 8
# Method: Naïve human CD8^+ T cells were activated with anti-CD3/CD28 and cultured with IL-15; Arid1a inhibitor was added at the indicated time point (n=6 per group). Data are compiled from at least two independent experiments. Data are representative of two independent experiments. Data shown are as mean±s.e.m. *p<0.05, **p<0.01, ***p<0.001; one-way ANOVA.
# Human Naïve CD8^+ T Cell Isolation and Stimulation. Human naive CD8^+ T cells were isolated from apheresis ring obtained from the St. Jude blood donor center. Peripheral blood mononuclear cells (PBMC) were isolated using a density gradient medium sold under the tradename LYMPHOPREP® (StemCell Inc.) following the manufacturer's protocol. Briefly, blood from apheresis ring was mixed with phosphate-buffered saline (PBS) containing 2% fetal bovine serum in 1:1 ratio. The mixture was then layered carefully on a density gradient medium sold under the tradename LYMPHOPREP®. Samples were centrifuged at 4000 rpm for 30 minutes at room temperature without braking. The PBMC layer was aspirated, washed twice with 2% fetal calf serum/PBS before isolation of naïve CD8^+ T cell using the MojoSort Human CD8^+ Naïve T Cell Isolation Kit (Biolegend). Naïve CD8^+ T cells were then stimulated with human T cell activation and expansion reagent sold under the tradename IMMUNOCULT® Human CD3/CD28 T Cell Activator (StemCell Inc.) plus 50 U/ml rhIL-2 or 10 ng/ml rhIL-15 for 2 days and expanded with 50 U/ml rhIL-2 or 10 ng/ml rhIL-15. BRD-K98645985 (1 μM; AOBIOUS or MedChemExpress) was added at the indicated time points. All human studies were in compliance with the Declaration of Helsinki. Blood donors were recruited by the Blood Donor Center at St. Jude Children's Research Hospital. Blood donors provided written consent for research use of their blood products not used in transfusions, which has been reviewed and approved by the Institutional Review Board at St. Jude Children's Research Hospital.
# The effect of the Arid1a inhibitor on the differentiation of activated, human CD8^+ T cells was also analyzed. […] After 30 days, T cells were recovered and analyzed.
# [10] = day 9 post-transfer, vs vehicle-treated CAR-T cells
smiles,measurement,setting,value
CO[C@H]1CN(C)C(=O)c2cc(NC(=O)NC(C)C)ccc2OC[C@H](C)N(Cc2ccc(-c3ccccn3)cc2)C[C@@H]1C [BRD-K98645985],expansion of CAR-T cells on repeated stimulation,[1],greater expansion
same,expansion of CAR-T cells on repeated stimulation,[2],greater expansion
same,generation of cells with the TCM marker CD62L,[3],promoted the generation of cells with the TCM marker CD62L
same,control of MC38-Ova tumor growth in vivo by transferred OT-I cells,[4],improved the ability of OT-I cells to control
same,persistence of activated human T cells in NSG mice,[5],enhanced persistence
same,propensity to express markers of TCM cells in NSG mice,[5],greater propensity to express markers of TCM cells
same,CAR expression compared with vehicle-treated controls,[6],no difference in CAR expression
same,CD62L expression of CAR-T cells,[6],high CD62L expression
same,tumor control (F420 tumor growth),"[7]; B7-H3 CAR-T cells from transiently inhibitor-treated T cells vs untreated, FIG. 6",markedly enhanced tumor control
same,survival of F420 tumor-bearing mice,"[7]; B7-H3 CAR-T cells from transiently inhibitor-treated T cells vs untreated, FIG. 7",markedly enhanced
same,number of CAR-T cells among tumor infiltrating lymphocytes,[7]; [10],higher numbers
same,proportion of CD62L^+CD44^+ cells among tumor infiltrating CAR-T cells,[7]; [10],higher proportion of CD62L^+CD44^+ cells
same,control of B16-Ova tumor growth in vivo by transferred OT-I cells,[8],improved the ability of OT-I cells to control
same,"generation of cells with markers of T memory stem cells (TSCM, CD45RA^+CCR7^+CD27^+CD95^+)",[9],necessary and sufficient to promote the generation
same,generation of cells with markers of TCM (CD45RA-CCR7+),[9],necessary and sufficient to promote the generation of cells with markers of TCM
same,"numbers of cells with markers of effector memory T cells (TEM, CD45RA^+CCR7^−)",[9],reduced numbers of cells with markers of effector memory T cells
